The record followed here is US10226452B2, “Benzoxazolone derivatives as acid ceramidase inhibitors, and their use as medicaments” (FONDAZIONE ISTITUTO ITALIANO DI TECNOLOGIA, priority 2014, dated 2019).

The target in one series is sPLA2 (h) (type V) (Homo sapiens (Human), UniProt P39877). The series can be described thus: Cerep enzyme inhibition screen: sPLA2. In kind it is biochemical. To be noted: mean of two determinations, read-out: Inhibitory activity (% Inh. at 10 μM), mean. The text has this: (§1) Compound of Example 25 falling in both Formula (I) and (Ia) was selected to be tested for off-target effects on a set of enzymes that include proteases (aspartic, cysteine, and serine), cyclooxygenases as well as lipoxygenases and group IV phospholipase (sPLA2) (Table 3). [table]
Chain of sPLA2 (h) (type V) (P39877 21-138): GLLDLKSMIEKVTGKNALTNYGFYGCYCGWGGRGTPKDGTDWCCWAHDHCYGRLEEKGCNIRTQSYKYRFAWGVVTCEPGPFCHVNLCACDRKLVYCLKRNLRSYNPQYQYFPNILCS

The target of the next series is cathepsin B (h) (Homo sapiens (Human), UniProt P07858). Briefly: Cerep enzyme inhibition screen: cathepsin B. The format is biochemical. To be noted: mean of two determinations, read-out: Inhibitory activity (% Inh. at 10 μM), mean.
Source text: as §1

Source text for SW403 cells: Combinatory index calculation of cell viability data analyzed with CompuSyn Software. The resulting combination index (CI) offers quantitative definition for additive effect (CI=1), synergism (CI<1), and antagonism (CI>1) in drug combinations. Results are expressed as mean±s.e.m. (n=8-16) of three independent experiments.
Finally, the CellTiter-Glo® Luminescent Cell Viability Assay can be used to determine the number of viable cells in culture based on quantitation of the ATP present, which signals the presence of metabolically active cells. Briefly, a volume of CellTiter-Glo® Reagent equal to the volume of cell culture medium present in each well is added to 96-well plates after drug treatment. Contents are mixed for 2 minutes on an orbital shaker to induce cell lysis and plate was incubated at room temperature for 10 minutes to stabilize signal before reading luminescence.
The compounds were added to the cultures once every 24 hours over a period of 72 hours and the effects of the combined treatments were evaluated using CompuSyn Software.

Consider `O=C(NCCCCc1ccccc1)n1c(=O)oc2cc(-c3ccc(F)cc3)ccc21` [Example 25, 6-(4-Fluorophenyl)-2-oxo-N-(4-phenylbutyl)-1,3-benzoxazole-3-carboxamide], for which the inhibition at 10 µM on sPLA2 (h) (type V) turned out to be 1.1%; at cathepsin B (h), 9.9%. Further, the “interaction with 5-FU on SW403 cell viability (combinatory index analysis)” value in the series on SW403 cells is listed as “acted synergistically with 5-FU”.
